Laboratory results taken from US20210177803A1, “NEW PHARMACEUTICAL USE FOR THE TREATMENT OF HEART FAILURE” (Novartis AG, priority 2018, published 2021).
Like-named read-outs stand apart in the source and are kept apart here.

Test system: patients with HFrEF following hemodynamic stabilization after an episode of ADHF
Conditions: for Patients with ≥1 AE: full analysis set
[1] = post-discharge, N = 496, 10-week treatment epoch
[2] = post-discharge, N = 496, 10-week treatment period
[3] = pre-discharge, N = 497, 10-week treatment epoch
[4] = pre-discharge, N = 497, 10-week treatment period
[5] = previous diagnosis of HFrEF (N = 705)
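Further: adverse events recorded in patients during the 10-week treatment phase following randomization.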

## CCCCC(=O)N(Cc1ccc(-c2ccccc2-c2nn[n-]n2)cc1)[C@H](C(=O)[O-])C(C)C.CCOC(=O)[C@H](C)C[C@@H](Cc1ccc(-c2ccccc2)cc1)NC(=O)CCC(=O)[O-].[Na+].[Na+].[Na+] [LCZ696, trisodium [3((1S,3R)-1-biphenyl-4-ylmethyl-3-ethoxycarbonyl-1-butylcarbamoyl) propionate-(S)-3′-methyl-2′-(pentanoyl{2″-(tetrazol-5-ylate)biphenyl-4′-ylmethyl}amino)butyrate]hemipentahydrate]
post-discharge, N = 496
  Serious adverse event: Hypotension: 2 (0.4) n (%)
  Serious adverse event: Non-cardiac chest pain: 3 (0.6) n (%)
  Serious adverse event: Pneumonia: 3 (0.6) n (%)
  Serious adverse event: Pulmonary edema: 2 (0.4) n (%)
  Serious adverse event: Renal failure: 1 (0.2) n (%)
  Serious adverse event: Respiratory tract infection: 3 (0.6) n (%)
  Serious adverse event: Ventricular tachycardia: 0 (0.0) n (%)
  Temporary treatment interruption due to AEs: 55 (11.1) n (%)
  Temporary treatment interruption due to SAEs: 18 (3.6) n (%)
  Temporary treatment interruption due to non-SAEs: 42 (8.5) n (%)
[1]
  Adverse event: Cardiac failure: 42 (8.5) n (%)
  Adverse event: Diarrhea: 23 (4.6) n (%)
  Adverse event: Dizziness: 21 (4.2) n (%)
  Adverse event: Hyperkalemia: 56 (11.3) n (%)
  Adverse event: Hypotension: 45 (9.1) n (%)
  Adverse event: Peripheral edema: 24 (4.8) n (%)
  Adverse event: Renal impairment: 15 (3.0) n (%)
  Adverse event: Urinary tract infection: 15 (3.0) n (%)
[2]
  Deaths: 10 (2.0) n (%)
  Patients with ≥ SAE / at least one SAE: 88 (17.7) n (%)
  Patients with ≥1 AE: 323 (65.1) n (%)
post-discharge, N = 496, full analysis set
  Permanent treatment discontinuation due to AEs: 20 (4.0) n (%)
pre- vs post-discharge
  RRR, permanent discontinuation due to AEs: 1.287
pre-discharge arm
  Mortality, patients who died: 2.6%
pre-discharge group
  AE cardiac failure, patients: 6.8%
  AE dizziness, patients: 5.6%
  AE hyperkalemia, patients: 11.1%
  AE hypotension, patients: 12.3%
  Patients with SAEs: 18.9%
  SAE acute kidney injury, patients: 1.2%
  SAE cardiac failure, patients: 7.0%
pre-discharge, N = 497
  Permanent treatment discontinuation due to SAEs: 15 (3.0) n (%)
  Permanent treatment discontinuation due to non-SAEs: 8 (1.6) n (%)
  Serious adverse event: Acute kidney injury: 6(1.2) n (%)
  Serious adverse event: Atrial fibrillation: 3 (0.6) n (%)
  Serious adverse event: Cardiac failure(acute/chronic): 35 (7.0) n (%)
  Serious adverse event: Chronic obstructive pulmonary disease: 0 (0.0) n (%)
  Serious adverse event: Hyperkalemia: 3 (0.6) n (%)
  Serious adverse event: Hypotension: 4 (0.8) n (%)
  Serious adverse event: Non-cardiac chest pain: 0 (0.0) n (%)
  Serious adverse event: Pneumonia: 4 (0.8) n (%)
  Serious adverse event: Pulmonary edema: 3 (0.6) n (%)
  Serious adverse event: Renal failure: 3 (0.6) n (%)
  Serious adverse event: Respiratory tract infection: 0 (0.0) n (%)
  Serious adverse event: Ventricular tachycardia: 3 (0.6) n (%)
  Temporary treatment interruption due to AEs: 70 (14.1) n (%)
  Temporary treatment interruption due to SAEs: 21 (4.2) n (%)
  Temporary treatment interruption due to non-SAEs: 54 (10.9) n (%)
[3]
  Adverse event: Cardiac failure: 34 (6.8) n (%)
  Adverse event: Diarrhea: 12 (2.4) n (%)
  Adverse event: Dizziness: 28 (5.6) n (%)
  Adverse event: Hyperkalemia: 55 (11.1) n (%)
  Adverse event: Hypotension: 61(12.3) n (%)
  Adverse event: Peripheral edema: 17 (3.4) n (%)
  Adverse event: Renal impairment: 25 (5.0) n (%)
  Adverse event: Urinary tract infection: 20 (4.0) n (%)
[4]
  Deaths: 13 (2.6) n (%)
  Patients with ≥ SAE / at least one SAE: 94 (18.9) n (%)
  Patients with ≥1 AE: 338 (68.0) n (%)
pre-discharge, N = 497, full analysis set
  Permanent treatment discontinuation due to AEs: 22 (4.4) n (%)
[5]
  AE of interest: Blood creatinine increased: 26 (3.7) n (%)
  AE of interest: Cardiac failure: 58 (8.2) n (%)
  AE of interest: Hyperkalemia: 85 (12.1) n (%)
  AE of interest: Hypotension: 108 (10.9) n (%)
  AE of interest: Renal failure: 16 (2.3) n (%)
  AE of interest: Renal impairment: 32 (4.5) n (%)
  At least one AE: 478 (67.8) n (%)
  At least one serious AE: 130 (18.4) n (%)
  Death: 5 (0.7) n (%)
  Treatment interruption due to AE: 87 (12.3) n (%)
